In PubChem BioAssay (NCI):
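Protocol summary: plate cells (96-well), add compound at 5 concentrations, incubate 48 h, interpolate endpoints linearly. The concentration for full growth arrest is given as TGI.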

Experiments:
Experiment in all cases: NCI-60 cell line screen, 48 h
SN12C renal = test system: SN12C renal
786-0 renal = test system: 786-0 renal
A549 NSCLC = test system: A549 NSCLC
EKVX NSCLC = test system: EKVX NSCLC
HT29 colon = test system: HT29 colon
HCT-116 colon = test system: HCT-116 colon
OVCAR-3 ovarian = test system: OVCAR-3 ovarian
SF-268 CNS = test system: SF-268 CNS
NCI-H226 lung = test system: NCI-H226 lung
MCF7 breast = test system: MCF7 breast

Row | SMILES | TGI (SN12C renal) [µM] | TGI (786-0 renal) [µM] | TGI (A549 NSCLC) [µM] | TGI (EKVX NSCLC) [µM] | TGI (HT29 colon) [µM] | TGI (HCT-116 colon) [µM] | TGI (OVCAR-3 ovarian) [µM] | TGI (SF-268 CNS) [µM] | TGI (NCI-H226 lung) [µM] | TGI (MCF7 breast) [µM]
1 | CC(=O)c1cc2c(s1)C(=O)c1scc(C(C)=O)c1C2=O | 0.426 | 1.9 | 2.71 | 1.34 | 4.2 | 1.12 | 0.271 | 1.5 | 3.57 | –
2 | COC(=O)c1c(C)ccc2c(O)c3c(cc12)C(=O)c1c2c(cc(O)c1C3=O)C1(C)OC(C)(O2)C(O)C(N(C)C)C1O (configuration not stated) | 12.1 | 1.95 | – | 8.75 | 2.01 | 1.84 | 9.59 | 2.7 | 11.5 | 8.04
3 | O=c1[nH]c(=S)c2cc3c(=S)[nH]c(=O)n(CCC(c4ccccc4)(c4ccccc4)c4ccccc4)c3nc2n1CCC(c1ccccc1)(c1ccccc1)c1ccccc1 | > 100 | > 100 | > 100 | > 100 | – | > 100 | > 100 | > 100 | > 100 | > 100
4 | OC12C3C4CC5C(C4[C@@H]1Br)C2[C@@](O)(c1c(F)c(F)c(F)c(F)c1F)C53 (some centres not stated) | > 100 | > 100 | > 100 | 98.9 | > 100 | > 100 | 65.8 | > 100 | – | 43.7
5 | CCC(C)NC(=S)N/N=C(\C)c1ccccn1 (configuration not stated) | > 100 | > 100 | > 33.5 | – | > 100 | > 100 | 23.4 | > 100 | 6.83 | –
6 | Cc1c(C)c2c(c(N)c1C#N)C(=O)N(OS(=O)(=O)c1ccccc1)C2=O | 51.4 | 30.3 | 32.1 | 37.4 | – | 68.1 | 59.8 | > 100 | 43.3 | > 100
7 | N#CC(c1nc2ccccc2s1)c1nc(Cl)ncc1Br (configuration not stated) | > 100 | > 100 | > 100 | > 100 | > 100 | 69.8 | 97.7 | > 100 | > 100 | –
8 | O=C1C=C(N2CCCC2)C(=O)c2c(O)ccc(O)c21 | > 10 | > 10 | > 10 | > 10 | > 10 | – | > 10 | > 10 | > 10 | > 10
9 | Cc1c(NC(=S)N/N=C\C(=N/NC(=S)Nc2c(C)n(C)n(-c3ccccc3)c2=O)c2ccccc2)c(=O)n(-c2ccccc2)n1C | – | > 100 | > 100 | > 100 | > 100 | > 100 | > 100 | > 100 | > 100 | –
10 | c1nncn1C12C3C4C5C3C1C5C42 (configuration not stated) | > 100 | > 100 | > 100 | > 100 | > 100 | > 100 | – | > 100 | > 100 | > 100
11 | CC(C)=CC(C)C(C(O)CCC1(c2ccoc2)OCCO1)S(=O)(=O)c1ccccc1 (configuration not stated) | > 100 | > 100 | > 100 | > 100 | – | > 100 | > 100 | > 100 | > 100 | > 100
